Results from US20080234368A9, “Therapeutic compositions and methods of use” (Trustees of Dartmouth College, priority 1998, published 2008).

Key:
[1] = test system: NRP-152 non-malignant prostate epithelium cells; assay: Suppression of thymidine incorporation, dose-response (FIG. 13); type: cell-based, rat; details: NRP-152, 72 h; oleanolic acid statement at concentrations of 1 μM or less
Experimental: (§1) Inhibitors of cell proliferation are known to be useful chemopreventive and chemotherapeutic agents. CDDO was tested against a wide variety of cells derived from highly aggressive leukemias and carcinomas, as well as from non-neoplastic tissues. NRP-152 cells were grown as described in Danielpour et al., 1994. MCF-7 cells were grown in phenol red-free RPMI 1640/10% charcoal-stripped FBS with added 17-β-estradiol (10 μM). Triterpenoids were added at the time of plating, and 72 h later ^3H-thymidine (1 μCi/well) was added for the final 2 h of incubation. Incorporation of thymidine was measured after cells were precipitated with TCA (10%), washed, and solubilized. The symbols used in FIG. 13 are CDDO, ▪; TP-82, ◯; and oleanolic acid; ●.

[2] = test system: MCF-7 breast carcinoma cells; assay: as above; type: cell-based, human; details: MCF-7 with 17-β-estradiol, 72 h; oleanolic acid statement at concentrations of 1 μM or less
Experimental: as §1

[3] = test system: IFN-γ-induced NO production in mouse macrophages; assay: Inhibition of IFN-γ induced NO production in mouse macrophages; type: cell-based; details: Mus musculus, Macrophage; 4 ng/mL IFN-γ, 48 hours, nitrite by Griess reaction; average of two separate experiments; read-out: IC50 for Inhibition of IFN-γ-Induced NO Production in Mouse Macrophages
Experimental: The inhibitory activities of these compounds and dexamethasone on IFN-γ induced NO production in mouse macrophages is shown below in Table 1. The following procedure for the assay ws used. Macrophages were harvested from female mice injected intraperitoneally four days previously with 4% thioglycollate. These cells were seeded in 96-well tissue culture plates and incubated with 4 ng/mL IFN-γ in the presence or absence of inhibitory test compounds. After 48 hours NO production (measured as nitrite by the Griess reaction) was determined. Full details of the assay are given in Ding et al., 1990; Bogdan et al., 1992.

[4] = test system: LCDB acute myelogenous leukemia cell line; assay: Monocytic differentiation, α-naphthyl acetate esterase staining; type: cell-based, human; details: TGF-β1 2.5 ng/ml, 48 h
Experimental: CDDO induces monocytic differentiation in the poorly differentiated LCDB acute myelogenous leukemia cell line, derived from a chemotherapy-resistant patient at the NCI Pediatric Oncology Branch. FIG. 11 illustrates LCDB cells seeded in RPMI 1640/2% FBS, either alone (11A), with 2.5 ng/ml TGF-β1 (11B), with 10^−8 M CDDO (11C), or with both TGF-β1 and CDDO (11D). After 48 h, cytospin slide preparations were made and stained for α-naphthyl acetate esterase activity (kit from Sigma). PC12 cells were cultured for 5 days in gridded dishes in DMEM/10% FBS and 5% horse serum (Smith et al., 1997), either alone (11E), with 100 ng/ml 7S NGF (11F), with 10^−6 M CDDO (11G), or with both NGF and CDDO (11H). […] Methods for quantitative image analysis of size of cells and neurites have been described (De 1a Torre et al., 1997). Control cells in FIG. 11E are approximately 10 μm in diameter. 3T3-L1 cells were grown to confluency in DMEM/5% calf serum, and then treated once with CDDO in DMEM/10% FBS (FIG. 12A) or with CDDO and/or LG100268 in DMEM/10% FBS (FIG. 12B). Every two days thereafter, medium was changed to DMEM/10% FBS, without added CDD0 or LG100268. Cells were harvested on day 8 (FIG. 12A) or day 6 (FIG. 12B), and GPDH was measured in lysates, using a standard assay for consumption of NADH at 340 nm (Wise and Green, 1979).

Molecule	suppressing thymidine incorporation [1]	suppressing thymidine incorporation [2]	IC50 [3] [nM]	induction of α-naphthyl esterase activity (monocytic differentiation) [4]
3,11-dioxoolean-1,9-dien-28oic acid [TP-82]	markedly less active	markedly less active	–	–
C[C@@H]1C[C@H]2[C@@H]3CCC4=CC(=O)C=C[C@]4(C)[C@@]3(F)[C@@H](O)C[C@]2(C)[C@@]1(O)C(=O)CO [dexamethasone, reference compound]	–	–	1	–
CC1(C)CC[C@]2(C(=O)O)CC[C@]3(C)C(=CC[C@@H]4[C@@]5(C)CC[C@H](O)C(C)(C)[C@@H]5CC[C@]43C)[C@@H]2C1 [oleanolic acid, reference compound]	virtually without activity	virtually without activity	–	–
TGF-01: transforming growth factor-β1	–	–	–	induced x-naphthyl esterase activity
